Reference: patent US20160242416A1, “FUNGICIDAL ISOXAZOLINE CARBINOLS” (E I DU PONT DE NEMOURS AND COMPANY, priority 2015, published 2016)

Legend:
[1] = system: Puccinia recondita f sp. tritici; assay: Test F: wheat leaf rust, preventive spray on wheat seedlings; conditions: 100 = 100% disease control; for Test F rating (% disease control): 10 ppm, wheat leaf rust, 0 = no control; for Test F disease control rating: 10 ppm test solution, 0 = no control relative to controls
Zymoseptoria tritici = assay: Test E: wheat leaf blotch, preventive spray on wheat seedlings; conditions: 100 = 100% disease control; for Test E rating (% disease control): 10 ppm, wheat leaf blotch, 0 = no control; for Test E disease control rating: 10 ppm test solution, 0 = no control relative to controls
Stagonospora nodorum = assay: Test D: wheat glume blotch, preventive spray on wheat seedlings; conditions: 100 = 100% disease control; for Test D rating (% disease control): 10 ppm, wheat glume blotch, 0 = no control; for Test D disease control rating: 10 ppm test solution, 0 = no control relative to controls
[2] = system: Erysiphe graminis f sp. tritici; assay: Test G: wheat powdery mildew, preventive spray on wheat seedlings; conditions: 100 = 100% disease control; for Test G rating (% disease control): 10 ppm, wheat powdery mildew, 0 = no control; for Test G disease control rating: 10 ppm test solution, 0 = no control relative to controls

Structure (SMILES): OC(Cn1cncn1)(C1=NOC(Cc2ccc(-c3ccccc3)cc2)C1)c1ccc(Cl)cc1 (single isomer, unassigned) [Compound 204]
- Test F rating (% disease control) [1]: 100%
- Test E rating (% disease control) (Zymoseptoria tritici): 0%
- Test D rating (% disease control) (Stagonospora nodorum): 77%
- Test G rating (% disease control) [2]: 99%

Structure (SMILES): OC(Cn1cncn1)(C1=NOC(Cc2ccc(-c3ccccc3)cc2)C1)c1ccc(Cl)cc1 (single isomer, unassigned) [Compound 205]
- Test F rating (% disease control) [1]: 68%
- Test E rating (% disease control) (Zymoseptoria tritici): 6%
- Test D rating (% disease control) (Stagonospora nodorum): 10%
- Test G rating (% disease control) [2]: 98%

Structure (SMILES): CC(C)(C)C(O)(Cn1cncn1)C1=NOC(CCOc2ccc(Cl)cc2)C1 (single isomer, unassigned) [Compound 208]
- Test F rating (% disease control) [1]: 100%
- Test E rating (% disease control) (Zymoseptoria tritici): 74%
- Test D rating (% disease control) (Stagonospora nodorum): 100%
- Test G rating (% disease control) [2]: 100%

Structure (SMILES): CC(C)(C)C(O)(Cn1cncn1)C1=NOC(CCOc2ccc(Cl)cc2)C1 (single isomer, unassigned) [Compound 209]
- Test F rating (% disease control) [1]: 100%
- Test E rating (% disease control) (Zymoseptoria tritici): 11%
- Test D rating (% disease control) (Stagonospora nodorum): 99%
- Test G rating (% disease control) [2]: 100%

Structure (SMILES): CC1(C(O)(Cn2cncn2)C2=NOC(COc3ccc(Cl)cc3)C2)CC1 (single isomer, unassigned) [Compound 224]
- Test F disease control rating [1]: 100%
- Test E disease control rating (Zymoseptoria tritici): 30%
- Test G disease control rating [2]: 100%

Structure (SMILES): CC1(C(O)(Cn2cncn2)C2=NOC(COc3ccc(Cl)cc3)C2)CC1 (single isomer, unassigned) [Compound 225]
- Test F disease control rating [1]: 100%
- Test E disease control rating (Zymoseptoria tritici): 0%
- Test G disease control rating [2]: 99%

Structure (SMILES): CC(C)(C)C(O)(Cn1cncn1)C1=NOC(COc2ccc(-c3ccccc3)cc2)C1 (single isomer, unassigned) [Compound 228]
- Test F disease control rating [1]: 86%
- Test E disease control rating (Zymoseptoria tritici): 12%
- Test D disease control rating (Stagonospora nodorum): 0%
- Test G disease control rating [2]: 99%

Structure (SMILES): CC(C)(C)C(O)(Cn1cncn1)C1=NOC(COc2ccc(-c3ccccc3)cc2)C1 (single isomer, unassigned) [Compound 229]
- Test F disease control rating [1]: 0%
- Test E disease control rating (Zymoseptoria tritici): 6%
- Test D disease control rating (Stagonospora nodorum): 0%
- Test G disease control rating [2]: 98%

Structure (SMILES): Cc1ccc(OCC2CC(C(O)(Cn3cncn3)C(C)(C)C)=NO2)cc1 (single isomer, unassigned) [Compound 234]
- Test F disease control rating [1]: 0%
- Test E disease control rating (Zymoseptoria tritici): 0%
- Test G disease control rating [2]: 99%

Structure (SMILES): Cc1ccc(OCC2CC(C(O)(Cn3cncn3)C(C)(C)C)=NO2)cc1 (single isomer, unassigned) [Compound 235]
- Test F disease control rating [1]: 87%
- Test E disease control rating (Zymoseptoria tritici): 8%
- Test G disease control rating [2]: 99%

Structure (SMILES): CC(C)(C)CC(O)(Cn1cncn1)C1=NOC(COc2ccc(C(F)(F)F)cc2)C1 (single isomer, unassigned) [Compound 240]
- Test F disease control rating [1]: 100%
- Test E disease control rating (Zymoseptoria tritici): 0%
- Test G disease control rating [2]: 99%

Structure (SMILES): CC(C)(C)CC(O)(Cn1cncn1)C1=NOC(COc2ccc(C(F)(F)F)cc2)C1 (single isomer, unassigned) [Compound 241]
- Test F disease control rating [1]: 99%
- Test E disease control rating (Zymoseptoria tritici): 0%
- Test G disease control rating [2]: 90%
